These are literature values, as cited in patent US20040170688A1, “Enteric formulation of fluoxetin” (priority 2001, published 2004).

For this series the following is noted: published literature.

Turning to `CNCCC(Oc1ccc(C(F)(F)F)cc1)c1ccccc1` (stereo not drawn) [Fluoxetin, N-Methyl-3-phenyl-3-[(α,α,α-trifluorotolyl)oxyl] propylamine], the elimination half-life entry was “very long”.

Take `NCCC(Oc1ccc(C(F)(F)F)cc1)c1ccccc1` (centres unmarked) [NorFluoxetin]: the elimination half-life result is listed as “very long”.
